Data published in ChEMBL document CHEMBL3885881, “DrugMatrix”.

Species on record: Rattus norvegicus
Experiment: DrugMatrix - Regimen: Daily Repeat
Type: toxicity, organism-based, Sprague-Dawley
Parameters: regimen Daily Repeat, gender Male, age 6-8 weeks
Details: in vivo, po, route oral GAVAGE, […]; for ABSOLUTE BASOPHIL / ABSOLUTE EOSINOPHIL / BASOPHIL / NUCLEATED RED BLOOD CELLS / EOSINOPHIL / ABSOLUTE MONOCYTE / ABSOLUTE SEGMENTED NEUTROPHIL / ERYTHROCYTE COUNT / HEMATOCRIT / HEMOGLOBIN / LEUKOCYTE COUNT / LYMPHOCYTE / MEAN CORPUSCULAR HEMOGLOBIN / MEAN CORPUSCULAR HEMOGLOBIN CONCENTRATION / MEAN CORPUSCULAR VOLUME / MONOCYTE / NEUTROPHIL / PLATELET COUNT: tissue Blood; for CREATININE / POTASSIUM / TOTAL BILIRUBIN / ALANINE AMINOTRANSFERASE / ALBUMIN / ASPARTATE AMINOTRANSFERASE / BLOOD UREA NITROGEN / CARBON DIOXIDE / CHLORIDE / CHOLESTEROL / CREATINE PHOSPHOKINASE / GLUCOSE / LACTATE DEHYDROGENASE / PHOSPHORUS / SODIUM / TOTAL PROTEIN / URIC ACID / LIPASE: tissue Plasma
[1] = 0 mg/kg, 72 h, dose level Control, time 3 day
[2] = 0 mg/kg, 120 h, dose level Control, time 5 day
[3] = 100 mg/kg, 72 h, dose level Low, time 3 day
[4] = 100 mg/kg, 120 h, dose level Low, time 5 day
[5] = 750 mg/kg, 72 h, dose level High, time 3 day
[6] = 750 mg/kg, 120 h, dose level High, time 5 day

In the case of COc1cc([C@@H]2c3cc4c(cc3[C@@H](O[C@@H]3O[C@@H]5CO[C@@H](C)O[C@H]5[C@H](O)[C@H]3O)[C@H]3COC(=O)[C@H]23)OCO4)cc(OC)c1O [ETOPOSIDE], the “ABSOLUTE BASOPHIL” value [1] was 0 CELLS/uL, the “ABSOLUTE EOSINOPHIL” value [1] was 52.33 CELLS/uL and the BASOPHIL [1] was 0%. The “NUCLEATED RED BLOOD CELLS” value [1] was 0 /100WBC, the CREATININE [1] was 0.33 mg/dL and the POTASSIUM [1] was 5.37 MEQ/L. The “TOTAL BILIRUBIN” value [1] was 0.2 mg/dL, the “ABSOLUTE BASOPHIL” value [2] was 0 CELLS/uL and the “ABSOLUTE EOSINOPHIL” value [2] was 0 CELLS/uL. The BASOPHIL [2] was 0%, the EOSINOPHIL [2] was 0% and the “TOTAL BILIRUBIN” value [2] was 0.37 mg/dL. The “ABSOLUTE BASOPHIL” value [3] was 0 CELLS/uL, the “ABSOLUTE EOSINOPHIL” value [3] was 0 CELLS/uL and the “ABSOLUTE MONOCYTE” value [3] was 20.33 CELLS/uL. The “ABSOLUTE SEGMENTED NEUTROPHIL” value [3] was 390.33 CELLS/uL, the BASOPHIL [3] was 0% and the EOSINOPHIL [3] was 0%. The “ERYTHROCYTE COUNT” value [3] was 4.86 x10E6/uL, the HEMATOCRIT [3] was 29.9% and the HEMOGLOBIN [3] was 12.13 G/DL. For the same compound, the “LEUKOCYTE COUNT” value [3] was 5.67 x10E3/uL, the LYMPHOCYTE [3] was 90% and the “MEAN CORPUSCULAR HEMOGLOBIN” value [3] was 24.93 pg. The “MEAN CORPUSCULAR HEMOGLOBIN CONCENTRATION” value [3] was 40.57 G/DL, the “MEAN CORPUSCULAR VOLUME” value [3] was 61.53 fL and the MONOCYTE [3] was 0.33%. For the same compound, the NEUTROPHIL [3] was 9.67%, the “NUCLEATED RED BLOOD CELLS” value [3] was 0 /100WBC and the “PLATELET COUNT” value [3] was 1214.33 x10E3/uL. For the same compound, the “ALANINE AMINOTRANSFERASE” value [3] was 36.67 u/L, the ALBUMIN [3] was 3.7 G/DL and the “ASPARTATE AMINOTRANSFERASE” value [3] was 67.67 u/L. The “BLOOD UREA NITROGEN” value [3] was 7.67 mg/dL, the “CARBON DIOXIDE” value [3] was 27 mmol/L and the CHLORIDE [3] was 102.67 MEQ/L. The CHOLESTEROL [3] was 92 mg/dL, the “CREATINE PHOSPHOKINASE” value [3] was 255.67 u/L and the CREATININE [3] was 0.23 mg/dL. The GLUCOSE [3] was 185 mg/dL, the “LACTATE DEHYDROGENASE” value [3] was 162.33 u/L and the PHOSPHORUS [3] was 11 mg/dL. The POTASSIUM [3] was 4.69 MEQ/L, the SODIUM [3] was 145 MEQ/L and the “TOTAL BILIRUBIN” value [3] was 0.1 mg/dL. The “TOTAL PROTEIN” value [3] was 5.5 G/DL, the “URIC ACID” value [3] was 0.8 mg/dL and the “ABSOLUTE BASOPHIL” value [4] was 0 CELLS/uL. The “ABSOLUTE EOSINOPHIL” value [4] was 0 CELLS/uL, the “ABSOLUTE MONOCYTE” value [4] was 12 CELLS/uL and the “ABSOLUTE SEGMENTED NEUTROPHIL” value [4] was 593.67 CELLS/uL. The BASOPHIL [4] was 0%, the EOSINOPHIL [4] was 0% and the “ERYTHROCYTE COUNT” value [4] was 4.82 x10E6/uL. The HEMATOCRIT [4] was 30.6%, the HEMOGLOBIN [4] was 12.2 G/DL and the “LEUKOCYTE COUNT” value [4] was 4.43 x10E3/uL. The LYMPHOCYTE [4] was 86%, the “MEAN CORPUSCULAR HEMOGLOBIN” value [4] was 25.37 pg and the “MEAN CORPUSCULAR HEMOGLOBIN CONCENTRATION” value [4] was 39.9 G/DL. For the same compound, the “MEAN CORPUSCULAR VOLUME” value [4] was 63.67 fL, the MONOCYTE [4] was 0.33% and the NEUTROPHIL [4] was 13.67%. For the same compound, the “NUCLEATED RED BLOOD CELLS” value [4] was 0 /100WBC, the “PLATELET COUNT” value [4] was 1205.67 x10E3/uL and the “ALANINE AMINOTRANSFERASE” value [4] was 53.33 u/L. For the same compound, the ALBUMIN [4] was 3.97 G/DL, the “ASPARTATE AMINOTRANSFERASE” value [4] was 81 u/L and the “BLOOD UREA NITROGEN” value [4] was 8.33 mg/dL. For the same compound, the CHLORIDE [4] was 104.33 MEQ/L, the CHOLESTEROL [4] was 87.67 mg/dL and the “CREATINE PHOSPHOKINASE” value [4] was 278.33 u/L. The CREATININE [4] was 0.3 mg/dL, the GLUCOSE [4] was 157 mg/dL and the “LACTATE DEHYDROGENASE” value [4] was 65.67 u/L. The LIPASE [4] was 8.67 u/L, the PHOSPHORUS [4] was 9.87 mg/dL and the POTASSIUM [4] was 5.33 MEQ/L. The SODIUM [4] was 145.8 MEQ/L, the “TOTAL BILIRUBIN” value [4] was 0.1 mg/dL and the “TOTAL PROTEIN” value [4] was 5.6 G/DL. The “URIC ACID” value [4] was 0.4 mg/dL, the “ABSOLUTE BASOPHIL” value [5] was 0 CELLS/uL and the “ABSOLUTE EOSINOPHIL” value [5] was 0 CELLS/uL. The “ABSOLUTE MONOCYTE” value [5] was 23 CELLS/uL, the “ABSOLUTE SEGMENTED NEUTROPHIL” value [5] was 326.67 CELLS/uL and the BASOPHIL [5] was 0%. For the same compound, the EOSINOPHIL [5] was 0%, the “ERYTHROCYTE COUNT” value [5] was 4.79 x10E6/uL and the HEMATOCRIT [5] was 30.9%. The HEMOGLOBIN [5] was 12.47 G/DL, the “LEUKOCYTE COUNT” value [5] was 4 x10E3/uL and the LYMPHOCYTE [5] was 91.33%. The “MEAN CORPUSCULAR HEMOGLOBIN” value [5] was 26 pg, the “MEAN CORPUSCULAR HEMOGLOBIN CONCENTRATION” value [5] was 40.33 G/DL and the “MEAN CORPUSCULAR VOLUME” value [5] was 64.5 fL. The MONOCYTE [5] was 0.67%, the NEUTROPHIL [5] was 8% and the “NUCLEATED RED BLOOD CELLS” value [5] was 0 /100WBC. The “PLATELET COUNT” value [5] was 1133.33 x10E3/uL, the “ALANINE AMINOTRANSFERASE” value [5] was 36.33 u/L and the ALBUMIN [5] was 3.77 G/DL. For the same compound, the “ASPARTATE AMINOTRANSFERASE” value [5] was 71 u/L, the “BLOOD UREA NITROGEN” value [5] was 9 mg/dL and the “CARBON DIOXIDE” value [5] was 26 mmol/L. The CHOLESTEROL [5] was 79.67 mg/dL, the “CREATINE PHOSPHOKINASE” value [5] was 235.33 u/L and the CREATININE [5] was 0.1 mg/dL. For the same compound, the GLUCOSE [5] was 189 mg/dL, the “LACTATE DEHYDROGENASE” value [5] was 94.67 u/L and the LIPASE [5] was 11.33 u/L. For the same compound, the PHOSPHORUS [5] was 11.07 mg/dL, the POTASSIUM [5] was 4.56 MEQ/L and the SODIUM [5] was 142.5 MEQ/L. The “TOTAL BILIRUBIN” value [5] was 0.1 mg/dL, the “TOTAL PROTEIN” value [5] was 5.4 G/DL and the “URIC ACID” value [5] was 0.37 mg/dL. For the same compound, the “ABSOLUTE BASOPHIL” value [6] was 0 CELLS/uL, the “ABSOLUTE EOSINOPHIL” value [6] was 0 CELLS/uL and the “ABSOLUTE MONOCYTE” value [6] was 44.5 CELLS/uL. For the same compound, the “ABSOLUTE SEGMENTED NEUTROPHIL” value [6] was 165.5 CELLS/uL, the BASOPHIL [6] was 0% and the EOSINOPHIL [6] was 0%. The “ERYTHROCYTE COUNT” value [6] was 6.19 x10E6/uL, the HEMATOCRIT [6] was 38.1% and the HEMOGLOBIN [6] was 15.5 G/DL. The “LEUKOCYTE COUNT” value [6] was 2.85 x10E3/uL, the LYMPHOCYTE [6] was 93% and the “MEAN CORPUSCULAR HEMOGLOBIN” value [6] was 25.05 pg. The “MEAN CORPUSCULAR HEMOGLOBIN CONCENTRATION” value [6] was 40.7 G/DL, the “MEAN CORPUSCULAR VOLUME” value [6] was 61.55 fL and the MONOCYTE [6] was 1.5%. The NEUTROPHIL [6] was 5.5%, the “NUCLEATED RED BLOOD CELLS” value [6] was 0 /100WBC and the “PLATELET COUNT” value [6] was 975 x10E3/uL. The “ALANINE AMINOTRANSFERASE” value [6] was 21.5 u/L, the ALBUMIN [6] was 4.1 G/DL and the “ASPARTATE AMINOTRANSFERASE” value [6] was 87 u/L. The “BLOOD UREA NITROGEN” value [6] was 106.5 mg/dL, the “CARBON DIOXIDE” value [6] was 28 mmol/L and the CHLORIDE [6] was 92 MEQ/L. For the same compound, the CHOLESTEROL [6] was 83.5 mg/dL, the “CREATINE PHOSPHOKINASE” value [6] was 328.5 u/L and the CREATININE [6] was 0.69 mg/dL. The GLUCOSE [6] was 115 mg/dL, the “LACTATE DEHYDROGENASE” value [6] was 82 u/L and the LIPASE [6] was 10 u/L. For the same compound, the PHOSPHORUS [6] was 9.8 mg/dL, the POTASSIUM [6] was 6.46 MEQ/L and the SODIUM [6] was 133.6 MEQ/L. For the same compound, the “TOTAL BILIRUBIN” value [6] was 0.15 mg/dL, the “TOTAL PROTEIN” value [6] was 6.3 G/DL and the “URIC ACID” value [6] was 0.35 mg/dL.
